Assay results: ChEMBL document CHEMBL3879907, “8-azabicyclo[3.2.1]octane compounds as mu opioid receptor antagonists” (2014)

Assays:
[1] = target: Kappa-type opioid receptor (Cavia porcellus, UniProt P41144); experiment: Displacement of [3H]-diprenorphine from guinea pig kappa opioid receptor expressed in CHOK1 cell membranes; details: cho-k1
[2] = target: Delta-type opioid receptor (Homo sapiens, UniProt P41143); experiment: Displacement of [3H]-diprenorphine from human delta opioid receptor expressed in cell membranes
Delta-type opioid receptor, sequence (P41143 whole entry): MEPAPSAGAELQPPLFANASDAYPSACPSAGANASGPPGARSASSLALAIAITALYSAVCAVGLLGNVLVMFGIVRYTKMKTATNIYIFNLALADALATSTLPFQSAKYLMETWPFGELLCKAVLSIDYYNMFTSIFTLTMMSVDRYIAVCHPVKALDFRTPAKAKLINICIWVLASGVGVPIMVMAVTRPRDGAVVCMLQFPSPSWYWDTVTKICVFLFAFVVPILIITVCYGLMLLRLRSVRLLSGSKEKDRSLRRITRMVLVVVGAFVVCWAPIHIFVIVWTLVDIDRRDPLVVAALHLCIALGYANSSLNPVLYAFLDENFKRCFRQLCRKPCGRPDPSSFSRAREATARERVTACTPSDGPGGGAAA

[3] = target: Mu-type opioid receptor (Homo sapiens) (UniProt P35372); experiment: Intrinsic activity at human mu opioid receptor expressed in CHOK1 cell membranes at 0.00001 to 20 uM after 30 mins by GTP-Eu nucleotide exchange assay relative to DAMGO; format: functional; details: CHO-K1
Mu-type opioid receptor (Homo sapiens), sequence (P35372 whole entry): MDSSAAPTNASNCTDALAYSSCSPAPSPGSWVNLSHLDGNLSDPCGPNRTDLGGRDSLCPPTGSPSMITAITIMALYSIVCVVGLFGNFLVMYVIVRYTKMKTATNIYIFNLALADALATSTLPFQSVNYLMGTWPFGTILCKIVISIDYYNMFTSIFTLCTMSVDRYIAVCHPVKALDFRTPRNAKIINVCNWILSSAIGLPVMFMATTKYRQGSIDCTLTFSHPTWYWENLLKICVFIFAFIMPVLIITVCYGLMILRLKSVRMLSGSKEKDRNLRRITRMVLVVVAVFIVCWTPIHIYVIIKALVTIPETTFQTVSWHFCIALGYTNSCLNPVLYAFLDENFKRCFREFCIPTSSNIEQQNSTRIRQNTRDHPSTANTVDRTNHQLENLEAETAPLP

Kappa-type opioid receptor, sequence (P41144 whole entry): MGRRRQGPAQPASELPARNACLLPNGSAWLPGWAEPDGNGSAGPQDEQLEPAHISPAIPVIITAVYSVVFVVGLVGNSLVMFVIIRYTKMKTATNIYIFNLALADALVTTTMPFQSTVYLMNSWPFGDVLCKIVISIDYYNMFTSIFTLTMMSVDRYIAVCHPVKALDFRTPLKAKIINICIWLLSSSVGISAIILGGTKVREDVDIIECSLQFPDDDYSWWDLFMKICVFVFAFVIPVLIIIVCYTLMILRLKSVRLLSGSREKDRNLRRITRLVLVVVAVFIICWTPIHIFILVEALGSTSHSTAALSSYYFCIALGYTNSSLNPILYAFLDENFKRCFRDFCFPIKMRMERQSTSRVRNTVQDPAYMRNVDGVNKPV

| Structure (SMILES) | pKi [1] | pKi [2] | Intrinsic activity [3] [%] |
| --- | --- | --- | --- |
| NC(=O)c1cccc([C@H]2C[C@H]3CC[C@@H](C2)N3CCN(Cc2ccc(F)cc2)C(=O)CO)c1.O=C(O)C(F)(F)F | 7 to 10.5 | 7 to 10.5 | < 40 |
| CN(C)CC[C@H](O)C(=O)N(CCN1[C@@H]2CC[C@H]1C[C@@H](c1cccc(C(N)=O)c1)C2)CC1CCC(F)(F)CC1.O=C(O)C(F)(F)F.O=C(O)C(F)(F)F | 7 to 10.5 | 7 to 10.5 | < 40 |
| COCC(=O)N(CCN1[C@@H]2CC[C@H]1C[C@@H](c1cccc(C(N)=O)c1)C2)Cc1c(F)cccc1F.O=C(O)C(F)(F)F | 7 to 10.5 | 7 to 10.5 | < 40 |
| CN(C)S(=O)(=O)N(CCN1[C@@H]2CC[C@H]1C[C@@H](c1cccc(C(N)=O)c1)C2)CC1CCCCC1.O=C(O)C(F)(F)F | 7 to 10.5 | 7 to 10.5 | < 40 |
| CS(=O)(=O)CC(=O)N(CCN1[C@@H]2CC[C@H]1C[C@@H](c1cccc(O)c1)C2)Cc1cccc(F)c1 | 7 to 10.5 | 7 to 10.5 | < 40 |
| CS(=O)(=O)CC(=O)N(CCc1ccc(F)cc1)CCN1[C@@H]2CC[C@H]1C[C@@H](c1cccc(C(N)=O)c1)C2.O=C(O)C(F)(F)F | 7 to 10.5 | 7 to 10.5 | < 40 |
| CC(C)(CO)C(=O)N(CCN1[C@@H]2CC[C@H]1C[C@@H](c1cccc(C(N)=O)c1)C2)CC1CCCC1.O=C(O)C(F)(F)F | 7 to 10.5 | 7 to 10.5 | < 40 |
| CS(=O)(=O)N(CCN1[C@@H]2CC[C@H]1C[C@@H](c1cccc(C(N)=O)c1)C2)CC1CCCC1.O=C(O)C(F)(F)F | 7 to 10.5 | 7 to 10.5 | < 40 |
| CS(=O)(=O)CC(=O)N(CCN1[C@@H]2CC[C@H]1C[C@@H](c1cccc(O)c1)C2)CC1CCCCC1 | 7 to 10.5 | 7 to 10.5 | < 40 |
| CS(=O)(=O)CC(=O)N(CCN1[C@@H]2CC[C@H]1C[C@@H](c1cccc(C(N)=O)c1)C2)Cc1ccccc1.O=C(O)C(F)(F)F | 7 to 10.5 | 7 to 10.5 | < 40 |
| CC(C)(O)C(=O)N(CCN1[C@@H]2CC[C@H]1C[C@@H](c1cccc(C(N)=O)c1)C2)Cc1c(F)cccc1F.O=C(O)C(F)(F)F | 7 to 10.5 | 7 to 10.5 | < 40 |
| CC(C)(O)C(=O)N(CCCN1[C@@H]2CC[C@H]1C[C@@H](c1cccc(C(N)=O)c1)C2)Cc1ccccc1.O=C(O)C(F)(F)F | 7 to 10.5 | 7 to 10.5 | < 40 |
| C[C@H](O)C(=O)N(CCN1[C@@H]2CC[C@H]1C[C@@H](c1cccc(C(N)=O)c1)C2)Cc1c(F)cccc1F.O=C(O)C(F)(F)F | 7 to 10.5 | 7 to 10.5 | < 40 |
| CC(C)(CC(=O)O)CC(=O)N(CCN1[C@@H]2CC[C@H]1C[C@@H](c1cccc(O)c1)C2)CC1CCCCC1 | 7 to 10.5 | 7 to 10.5 | < 40 |
| CCN(CC)CC[C@H](O)C(=O)N(CCN1[C@@H]2CC[C@H]1C[C@@H](c1cccc(C(N)=O)c1)C2)CC1CCCCC1 | 7 to 10.5 | 7 to 10.5 | < 40 |
| C[C@H](O)C(=O)N(CCN1[C@@H]2CC[C@H]1C[C@@H](c1cccc(C(N)=O)c1)C2)CC1CCC1.O=C(O)C(F)(F)F | 7 to 10.5 | 7 to 10.5 | < 40 |
| COC(=O)CCC(=O)N(CCN1[C@@H]2CC[C@H]1C[C@@H](c1cccc(O)c1)C2)CC1CCCCC1 | 7 to 10.5 | 7 to 10.5 | < 40 |
| CN(C)CC[C@H](O)C(=O)N(CCN1[C@@H]2CC[C@H]1C[C@@H](c1cccc(C(N)=O)c1)C2)CC1CCCCC1 | 7 to 10.5 | 7 to 10.5 | < 40 |
| CS(=O)(=O)CC(=O)N(CCN1[C@@H]2CC[C@H]1C[C@@H](c1cccc(C(N)=O)c1)C2)CC1CCCCC1 | 7 to 10.5 | 7 to 10.5 | < 40 |
| NC(=O)c1cccc([C@H]2C[C@H]3CC[C@@H](C2)N3CCN(CC2CCCCC2)C(=O)C[C@H](O)CO)c1.O=C(O)C(F)(F)F | 7 to 10.5 | 7 to 10.5 | < 40 |
| CS(=O)(=O)CC(=O)N(CCN1[C@@H]2CC[C@H]1C[C@@H](c1cccc(O)c1)C2)Cc1c(F)cccc1F | 7 to 10.5 | 7 to 10.5 | < 40 |
| CS(=O)(=O)CC(=O)N(CCCN1[C@@H]2CC[C@H]1C[C@@H](c1cccc(C(N)=O)c1)C2)CC1CCCCC1 | 7 to 10.5 | 7 to 10.5 | < 40 |
| O=C(CO)N(CCN1[C@@H]2CC[C@H]1C[C@@H](c1cccc(O)c1)C2)Cc1ccc(F)cc1 | 7 to 10.5 | 7 to 10.5 | < 40 |
| O=C(O)CS(=O)(=O)CC(=O)N(CCN1[C@@H]2CC[C@H]1C[C@@H](c1cccc(O)c1)C2)CC1CCCCC1 | 7 to 10.5 | 7 to 10.5 | < 40 |
| NC(=O)c1cccc([C@H]2C[C@H]3CC[C@@H](C2)N3CCN(CC2CCCCC2)C(=O)Nc2ccc3c(c2)OCO3)c1 | 7 to 10.5 | 7 to 10.5 | < 40 |

| Structure (SMILES) | pKi [1] | pKi [2] | Intrinsic activity [3] [%] |
| --- | --- | --- | --- |
| CC(=O)N(Cc1ccccc1)[C@H](C)CN1[C@@H]2CC[C@H]1C[C@@H](c1cccc(O)c1)C2 | 7 to 10.5 | 7 to 10.5 | < 40 |
| NC(=O)c1cccc([C@H]2C[C@H]3CC[C@@H](C2)N3CCN(CC2CCCCC2)C(=O)[C@@H](O)Cc2ccccc2)c1 | 7 to 10.5 | 7 to 10.5 | < 40 |
| O=C([C@@H](O)C1CCCCC1)N(CCN1[C@@H]2CC[C@H]1C[C@@H](c1cccc(O)c1)C2)CC1CCCCC1 | 7 to 10.5 | 7 to 10.5 | < 40 |
| O=C(CO)N(CCN1[C@@H]2CC[C@H]1C[C@@H](c1cccc(O)c1)C2)Cc1cccc(F)c1 | 7 to 10.5 | 7 to 10.5 | < 40 |
| CC(C)CC(=O)N(CCN1[C@@H]2CC[C@H]1C[C@@H](c1cccc(O)c1)C2)CC1CCCCC1 | 7 to 10.5 | 7 to 10.5 | < 40 |
| CC(=O)N(CCN1[C@@H]2CC[C@H]1C[C@@H](c1cccc(O)c1)C2)Cc1c(F)cccc1F | 7 to 10.5 | 7 to 10.5 | < 40 |
| NC(=O)c1cccc([C@H]2C[C@H]3CC[C@@H](C2)N3CCN(CC2CCC(F)(F)CC2)C(=O)[C@H](O)CO)c1.O=C(O)C(F)(F)F | 7 to 10.5 | 7 to 10.5 | < 40 |
| CS(=O)(=O)CC(=O)N(CCN1[C@@H]2CC[C@H]1C[C@@H](c1cccc(C(N)=O)c1)C2)CC1CCC1.O=C(O)C(F)(F)F | 7 to 10.5 | 7 to 10.5 | < 40 |
| NC(=O)c1cccc([C@H]2C[C@H]3CC[C@@H](C2)N3CCN(CC2CCCCC2)C(=O)CCCO)c1 | 7 to 10.5 | 7 to 10.5 | < 40 |
| CS(=O)(=O)N(CCN1[C@@H]2CC[C@H]1C[C@@H](c1cccc(C(N)=O)c1)C2)Cc1ccccc1.O=C(O)C(F)(F)F | 7 to 10.5 | 7 to 10.5 | < 40 |
| C[C@H](CN1[C@@H]2CC[C@H]1C[C@@H](c1cccc(O)c1)C2)N(Cc1ccccc1)C(=O)CC1CCCC1 | 7 to 10.5 | 7 to 10.5 | < 40 |
| CC(C)(C)OCC(=O)N(CCN1[C@@H]2CC[C@H]1C[C@@H](c1cccc(C(N)=O)c1)C2)Cc1c(F)cccc1F.O=C(O)C(F)(F)F | 7 to 10.5 | 7 to 10.5 | < 40 |
| CC(C)C[C@H](O)C(=O)N(CCN1[C@@H]2CC[C@H]1C[C@@H](c1cccc(O)c1)C2)CC1CCCCC1 | 7 to 10.5 | 7 to 10.5 | < 40 |
| CC(=O)N(CCN1[C@@H]2CC[C@H]1C[C@@H](c1cccc(O)c1)C2)CC1CCCCC1 | 7 to 10.5 | 7 to 10.5 | < 40 |
| NC(=O)c1cccc([C@H]2C[C@H]3CC[C@@H](C2)N3CCN(CC2CCCCC2)C(=O)NCc2ccc(F)cc2)c1 | 7 to 10.5 | 7 to 10.5 | < 40 |
| O=C(C1CCCC1)N(CCN1[C@@H]2CC[C@H]1C[C@@H](c1cccc(O)c1)C2)CC1CCCCC1 | 7 to 10.5 | 7 to 10.5 | < 40 |
| C[C@H](CN1[C@@H]2CC[C@H]1C[C@@H](c1cccc(O)c1)C2)N(Cc1ccccc1)C(=O)CCC(=O)O | 7 to 10.5 | 7 to 10.5 | < 40 |
| N#CCC(=O)N(CCN1[C@@H]2CC[C@H]1C[C@@H](c1cccc(C(N)=O)c1)C2)Cc1c(F)cccc1F.O=C(O)C(F)(F)F | 7 to 10.5 | 7 to 10.5 | < 40 |
| CC(=O)N(CCCN1[C@@H]2CC[C@H]1C[C@@H](c1cccc(C(N)=O)c1)C2)CC1CCCCC1 | 7 to 10.5 | 7 to 10.5 | < 40 |
| CC(C)(C)C(=O)N(CCN1[C@@H]2CC[C@H]1C[C@@H](c1cccc(C(N)=O)c1)C2)CC1CCCC1.O=C(O)C(F)(F)F | 7 to 10.5 | 7 to 10.5 | < 40 |
| NC(=O)c1cccc([C@H]2C[C@H]3CC[C@@H](C2)N3CCN(Cc2c(F)cccc2F)C(=O)[C@H]2CC[C@H](O)CC2)c1.O=C(O)C(F)(F)F | 7 to 10.5 | 7 to 10.5 | < 40 |
| NC(=O)c1cccc([C@H]2C[C@H]3CC[C@@H](C2)N3CCCN(Cc2ccccc2)C(=O)[C@H](O)CO)c1.O=C(O)C(F)(F)F | 7 to 10.5 | 7 to 10.5 | < 40 |
| NC(=O)c1cccc([C@H]2C[C@H]3CC[C@@H](C2)N3CCN(Cc2ccccc2)C(=O)C2(O)CC2)c1.O=C(O)C(F)(F)F | 7 to 10.5 | 7 to 10.5 | < 40 |
| NC(=O)c1cccc([C@H]2C[C@H]3CC[C@@H](C2)N3CCN(CCC2CCCCC2)C(=O)CO)c1 | 7 to 10.5 | 7 to 10.5 | < 40 |
| NC(=O)CCC(=O)N(CCN1[C@@H]2CC[C@H]1C[C@@H](c1cccc(O)c1)C2)CC1CCCCC1 | 7 to 10.5 | 7 to 10.5 | < 40 |
